Results from BindingDB's records for doi:10.1021/acs.jmedchem.3c00926 (Yale University, 2023).

Experiments:
[1] = biological target: T1, Signal transducer and activator of transcription 3 (Homo sapiens, UniProt P40763); experiment: Inhibition of IL-23 induced STAT3 phosphorylation in human KIT225 cells by AlphaLISA assay
[2] = biological target: T1, Signal transducer and activator of transcription 3; experiment: Inhibition of IL-23 induced STAT3 phosphorylation in human Jurkat cells incubated for 30 mins by microplate reader analysis

T1 sequence (P40763 whole entry): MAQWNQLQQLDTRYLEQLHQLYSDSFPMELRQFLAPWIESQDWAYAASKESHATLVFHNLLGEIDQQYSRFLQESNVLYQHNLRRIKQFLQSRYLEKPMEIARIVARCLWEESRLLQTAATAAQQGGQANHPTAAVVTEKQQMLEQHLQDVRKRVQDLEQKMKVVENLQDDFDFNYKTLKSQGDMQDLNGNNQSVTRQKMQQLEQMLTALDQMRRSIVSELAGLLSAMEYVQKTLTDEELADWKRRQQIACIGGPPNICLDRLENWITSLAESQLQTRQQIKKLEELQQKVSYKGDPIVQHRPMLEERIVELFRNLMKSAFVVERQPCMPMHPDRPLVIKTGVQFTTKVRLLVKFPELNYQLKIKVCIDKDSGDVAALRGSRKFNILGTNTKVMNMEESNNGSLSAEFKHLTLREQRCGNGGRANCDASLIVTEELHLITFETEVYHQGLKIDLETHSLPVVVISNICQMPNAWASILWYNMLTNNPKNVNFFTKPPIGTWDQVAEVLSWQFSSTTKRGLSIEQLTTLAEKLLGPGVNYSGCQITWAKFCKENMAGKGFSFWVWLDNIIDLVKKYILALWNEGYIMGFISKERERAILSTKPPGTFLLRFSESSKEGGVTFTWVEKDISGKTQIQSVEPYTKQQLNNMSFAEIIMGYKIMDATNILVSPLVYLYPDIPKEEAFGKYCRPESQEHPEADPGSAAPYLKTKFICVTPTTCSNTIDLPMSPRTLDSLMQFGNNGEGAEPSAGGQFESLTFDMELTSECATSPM

IC50 [1]	IC50 [2]	SMILES
15 nM	–	[2H]C([2H])([2H])NC(=O)c1nnc(NC(=O)C2CC2)cc1Nc1ccccc1S(C)(=O)=O
230 nM	–	CNC(=O)c1cnc(Nc2ccc(F)cn2)cc1Nc1ccccc1S(C)(=O)=O
8200 nM	–	N#Cc1cc(Nc2cc(NC3CC3)c3ncc(C(N)=O)n3n2)cc(C(F)(F)F)c1

Second part, the molecule before the results:

SMILES	IC50 [1]	IC50 [2]
CNC(=O)c1cnc(Nc2ccc(C#N)cn2)cc1Nc1cccc(-c2ncn(C)n2)c1OC	13 nM	–
NC(=O)c1ccccc1Nc1cc(Nc2ccc(F)cn2)ncc1C(N)=O	180 nM	89 nM
[2H]C([2H])([2H])NC(=O)c1nnc(NC(=O)C2CC2)cc1Nc1cccc(-c2ncn(C)n2)c1OC [Bms-986165]	89 nM	–
